Data taken from patent US6525001B1, “Substituted pyrimidine and pyridine herbicides” (Mid-American Commercialization Corporation, priority 1997, dated 2003).

Legend:
Assay type in all cases: in vivo
Parameters in all cases: key: 0 is no effect; 10 is complete control
[1] = system: bamyardgrass (Echinochloa crus-galli); experiment: Test B flood test
Experimental: (§1) At the same time, these crop and weed species were also treated with postemergence applications of test chemicals formulated in the same manner. Plants ranged in height from 2 to 18 cm (1- to 4-leaf stage) for postemergence treatments. Plant species in the flood test consisted of rice (Oryza sativa), smallflower flatsedge (Cyperus difformis), duck salad (Heteranthera limosa) and bamyardgrass (Echinochloa crus-galli) grown to the 2-leaf stage for testing. Treated plants and controls were maintained in a greenhouse for twelve to sixteen days, after which all species were compared to controls and visually evaluated. Plant response ratings, summarized in Table B, are based on a scale of 0 to 10 where 0 is no effect and 10 is complete control. A dash (−) response means no test result.

[2] = system: duck salad (Heteranthera limosa); experiment: Test B flood test
Experimental: as §1

rice (Oryza sativa) = experiment: Test B flood test
Experimental: as §1

[3] = system: smallflower flatsedge (Cyperus difformis); experiment: Test B flood test
Experimental: as §1

soybean (Glycine max) = experiment: Test B pre-/postemergence; conditions: for Plant response rating, Soybean: Preemergence; for Soybean plant response rating: Postemergence
Excerpt: (§2) Seeds of bedstraw (Galium aparine), blackgrass (Alopecurus myosuroides), broadleaf signalgrass (Brachiaria decumbens), cocklebur (Xanthium strumarium), corn (Zea mays), crabgrass (Digitaria sanguinalis), giant foxtail (Setaria faberii), lambsquarters (Chenopodium album), momingglory (Ipomoea hederacea), pigweed (Amaranthus retroflexus), rape (Brassica napus), soybean (Glycine max), sugar beet (Beta vulgaris), velvetleaf (Abutilon theophrasti), wheat (Triticum aestivum), wild oat (Avena fatua) and purple nutsedge (Cyperus rotundus) tubers were planted and treated preemergence with test chemicals formulated in a non-phytotoxic solvent mixture which included a surfactant.
as §1

[4] = system: velvetleaf (Abutilon theophrasti); experiment: Test B pre-/postemergence; conditions: for Velvetleaf plant response rating: Postemergence
Excerpt: as §2, §1

[5] = system: bedstraw (Galium aparine); experiment: Test B pre-/postemergence; conditions: Rate 125 g/ha, Preemergence
Excerpt: as §2, §1

[6] = system: pigweed (Amaranthus retroflexus); experiment: Test B pre-/postemergence; conditions: for Plant response rating, Redroot pigweed: Preemergence; for Redroot pigweed plant response rating: Postemergence
Excerpt: as §2, §1

[7] = system: giant foxtail (Setaria faberii); experiment: Test B pre-/postemergence; conditions: for Plant response rating, Giant foxtail: Preemergence; for Giant foxtail plant response rating: Postemergence
Excerpt: as §2, §1

[8] = system: sugar beet (Beta vulgaris); experiment: Test B pre-/postemergence; conditions: for Plant response rating, Sugarbeets: Preemergence; for Sugarbeets plant response rating: Postemergence
Excerpt: as §2, §1

[9] = system: momingglory (Ipomoea hederacea); experiment: Test B pre-/postemergence; conditions: for Plant response rating, Morningglory: Preemergence; for Morningglory plant response rating: Postemergence
Excerpt: as §2, §1

[10] = system: broadleaf signalgrass (Brachiaria decumbens); experiment: Test B pre-/postemergence
Excerpt: as §2, §1

[11] = system: cocklebur (Xanthium strumarium); experiment: Test B pre-/postemergence; conditions: for Cocklebur plant response rating: Postemergence
Excerpt: as §2, §1

rape (Brassica napus) = experiment: Test B pre-/postemergence; conditions: for Plant response rating, Rape: Preemergence; for Rape plant response rating: Postemergence
Excerpt: as §2, §1

[12] = system: blackgrass (Alopecurus myosuroides); experiment: Test B pre-/postemergence; conditions: for Plant response rating, Blackgrass: Preemergence; for Blackgrass plant response rating: Postemergence
Excerpt: as §2, §1

wild oat (Avena fatua) = experiment: Test B pre-/postemergence; conditions: for Plant response rating, Wild oats: Preemergence; for Wild oats plant response rating: Postemergence
Excerpt: as §2, §1

[13] = system: crabgrass (Digitaria sanguinalis); experiment: Test B pre-/postemergence; conditions: for Plant response rating, Crabgrass: Preemergence; for Crabgrass plant response rating: Postemergence
Excerpt: as §2, §1

corn (Zea mays) = experiment: Test B pre-/postemergence; conditions: for Plant response rating, Corn: Preemergence; for Corn plant response rating: Postemergence
Excerpt: as §2, §1

[14] = system: wheat (Triticum aestivum); experiment: Test B pre-/postemergence; conditions: for Plant response rating, Wheat: Preemergence; for Wheat plant response rating: Postemergence
Excerpt: as §2, §1

[15] = Rate 62 g/ha, Postemergence (flood test)
[16] = Rate 125 g/ha, Postemergence section (flood test species)
[17] = Rate 250 g/ha, Postemergence (flood test species)

Q: How did the “Barnyardgrass plant response rating” value [1, 15] turn out when `CCc1cnc(-n2cnc(C(F)(F)F)c2)nc1C(=O)c1cccc(OC(F)(F)F)c1` [Compound 71] was run?
A: The value was 2.

Q: And the “Barnyardgrass plant response rating” value [1, 16]?
A: The value was 2.

Q: And the “Plant response rating, Barnyardgrass” value [1, 17]?
A: The value was 3.

Q: And the “Ducksalad plant response rating” value [2, 15]?
A: Its value is 0.

Q: What about the “Ducksalad plant response rating” value [2, 16] of the same compound?
A: The value was 0.

Q: And the “Plant response rating, Ducksalad” value [2, 17]?
A: The value was 2.

Q: What about the “Rice plant response rating” value (rice (Oryza sativa); [15]) of the same compound?
A: The value was 2.

Q: And the “Rice plant response rating” value (rice (Oryza sativa); [16])?
A: Its value is 2.

Q: What about the “Plant response rating, Rice” value (rice (Oryza sativa); [17]) of the same compound?
A: The value was 2.

Q: What about the “S. Flatsedge plant response rating” value [3, 15] of the same compound?
A: The value was 0.

Q: And the “S. Flatsedge plant response rating” value [3, 16]?
A: The value was 2.

Q: What about the “Plant response rating, S. Flatsedge” value [3, 17] of the same compound?
A: The value was 4.

Q: What about the “Plant response rating, Soybean” value (soybean (Glycine max); Rate 62 g/ha, scale of 0 to 10) of the same compound?
A: Its value is 0.

Q: What about the “Soybean plant response rating” value (soybean (Glycine max); Rate 62 g/ha) of the same compound?
A: The value was 3.

Q: What about the “Soybean plant response rating” value (soybean (Glycine max); Rate 125 g/ha) of the same compound?
A: Its value is 4.

Q: And the “Plant response rating, Soybean” value (soybean (Glycine max); Rate 125 g/ha)?
A: Its value is 0.

Q: And the “Velvetleaf plant response rating” value ([4]; Rate 62 g/ha)?
A: Its value is 3.

Q: And the “Velvetleaf plant response rating” value ([4]; Rate 125 g/ha)?
A: Its value is 6.

Q: What about the “Plant response rating, Velvetleaf” value ([4]; Rate 125 g/ha, Preemergence) of the same compound?
A: The value was 6.

Q: What about the “Plant response rating, Bedstraw” value [5] of the same compound?
A: The value was 1.

Q: What about the “Plant response rating, Redroot pigweed” value ([6]; Rate 62 g/ha, scale of 0 to 10) of the same compound?
A: Its value is 6.

Q: What about the “Redroot pigweed plant response rating” value ([6]; Rate 62 g/ha) of the same compound?
A: Its value is 8.

Q: And the “Redroot pigweed plant response rating” value ([6]; Rate 125 g/ha)?
A: Its value is 8.

Q: What about the “Plant response rating, Redroot pigweed” value ([6]; Rate 125 g/ha) of the same compound?
A: Its value is 8.

Q: And the “Plant response rating, Giant foxtail” value ([7]; Rate 62 g/ha, scale of 0 to 10)?
A: The value was 1.

Q: What about the “Giant foxtail plant response rating” value ([7]; Rate 62 g/ha) of the same compound?
A: Its value is 2.

Q: What about the “Giant foxtail plant response rating” value ([7]; Rate 125 g/ha) of the same compound?
A: Its value is 2.

Q: What about the “Plant response rating, Giant foxtail” value ([7]; Rate 125 g/ha) of the same compound?
A: The value was 2.

Q: What about the “Plant response rating, Sugarbeets” value ([8]; Rate 62 g/ha, scale of 0 to 10) of the same compound?
A: Its value is 2.

Q: What about the “Sugarbeets plant response rating” value ([8]; Rate 62 g/ha) of the same compound?
A: The value was 8.

Q: And the “Sugarbeets plant response rating” value ([8]; Rate 125 g/ha)?
A: The value was 8.

Q: And the “Plant response rating, Sugarbeets” value ([8]; Rate 125 g/ha)?
A: The value was 3.

Q: What about the “Plant response rating, Morningglory” value ([9]; Rate 62 g/ha, scale of 0 to 10) of the same compound?
A: Its value is 2.

Q: And the “Morningglory plant response rating” value ([9]; Rate 62 g/ha)?
A: Its value is 1.

Q: And the “Morningglory plant response rating” value ([9]; Rate 125 g/ha)?
A: The value was 6.

Q: What about the “Plant response rating, Morningglory” value ([9]; Rate 125 g/ha) of the same compound?
A: Its value is 4.

Q: What about the “B. signalgrass plant response rating” value ([10]; Rate 62 g/ha, Postemergence) of the same compound?
A: The value was 2.

Q: And the “B. signalgrass plant response rating” value ([10]; Rate 62 g/ha, Preemergence)?
A: The value was 0.

Q: And the “B. signalgrass plant response rating” value ([10]; Rate 125 g/ha, Postemergence)?
A: The value was 2.

Q: And the “Plant response rating, B. signalgrass” value ([10]; Rate 125 g/ha, Preemergence)?
A: Its value is 2.

Q: And the “Cocklebur plant response rating” value ([11]; Rate 62 g/ha)?
A: Its value is 4.

Q: And the “Cocklebur plant response rating” value ([11]; Rate 125 g/ha)?
A: The value was 4.

Q: And the “Plant response rating, Cocklebur” value ([11]; Rate 125 g/ha, Preemergence)?
A: The value was 0.

Q: And the “Plant response rating, Rape” value (rape (Brassica napus); Rate 62 g/ha, scale of 0 to 10)?
A: The value was 2.

Q: And the “Rape plant response rating” value (rape (Brassica napus); Rate 62 g/ha)?
A: The value was 5.

Q: What about the “Rape plant response rating” value (rape (Brassica napus); Rate 125 g/ha) of the same compound?
A: Its value is 7.

Q: And the “Plant response rating, Rape” value (rape (Brassica napus); Rate 125 g/ha)?
A: The value was 7.

Q: What about the “Plant response rating, Blackgrass” value ([12]; Rate 62 g/ha, scale of 0 to 10) of the same compound?
A: Its value is 1.

Q: What about the “Blackgrass plant response rating” value ([12]; Rate 62 g/ha) of the same compound?
A: Its value is 2.

Q: What about the “Blackgrass plant response rating” value ([12]; Rate 125 g/ha) of the same compound?
A: The value was 3.

Q: What about the “Plant response rating, Blackgrass” value ([12]; Rate 125 g/ha) of the same compound?
A: The value was 2.

Q: What about the “Plant response rating, Wild oats” value (wild oat (Avena fatua); Rate 62 g/ha, scale of 0 to 10) of the same compound?
A: The value was 0.

Q: What about the “Wild oats plant response rating” value (wild oat (Avena fatua); Rate 62 g/ha) of the same compound?
A: Its value is 2.

Q: And the “Wild oats plant response rating” value (wild oat (Avena fatua); Rate 125 g/ha)?
A: The value was 2.

Q: And the “Plant response rating, Wild oats” value (wild oat (Avena fatua); Rate 125 g/ha)?
A: Its value is 3.

Q: What about the “Plant response rating, Crabgrass” value ([13]; Rate 62 g/ha, scale of 0 to 10) of the same compound?
A: Its value is 2.

Q: And the “Crabgrass plant response rating” value ([13]; Rate 62 g/ha)?
A: Its value is 2.

Q: And the “Crabgrass plant response rating” value ([13]; Rate 125 g/ha)?
A: The value was 3.

Q: And the “Plant response rating, Crabgrass” value ([13]; Rate 125 g/ha)?
A: Its value is 2.

Q: And the “Plant response rating, Corn” value (corn (Zea mays); Rate 62 g/ha, scale of 0 to 10)?
A: Its value is 1.

Q: And the “Corn plant response rating” value (corn (Zea mays); Rate 62 g/ha)?
A: The value was 2.

Q: And the “Corn plant response rating” value (corn (Zea mays); Rate 125 g/ha)?
A: Its value is 3.

Q: And the “Plant response rating, Corn” value (corn (Zea mays); Rate 125 g/ha)?
A: Its value is 1.

Q: And the “Plant response rating, Wheat” value ([14]; Rate 62 g/ha, scale of 0 to 10)?
A: Its value is 1.

Q: And the “Wheat plant response rating” value ([14]; Rate 62 g/ha)?
A: The value was 4.

Q: What about the “Wheat plant response rating” value ([14]; Rate 125 g/ha) of the same compound?
A: Its value is 4.

Q: And the “Plant response rating, Wheat” value ([14]; Rate 125 g/ha)?
A: The value was 3.
